Laboratory results from US20250333441A1, “POLYPEPTIDE INHIBITORS AND USES THEREOF” (Neuracle Science Co., Ltd., priority 2021, published 2025).
Where a SMILES comes first, the peptide text is derived from it. Where no end group is shown, it is not given here. [ ]: non-standard residue; d: D form.

Key:
[1] = tested on: mouse hippocampal neurons treated with toxic amyloid beta oligomer; assay: Amyloid beta-induced synapse loss in primary hippocampal neurons; assay type: cell-based; settings: 6.6 nM; co-treated with toxic amyloid beta oligomer; 21 DIV
Protocol: Alzheimer's disease (AD) is tightly associated with the dysmetabolism of amyloid-R (A3). To begin assessing whether the polypeptides provided herein (i.e., comprising the FAM19A5 binding domain of LRRC4 protein family members) could have any therapeutic effects on AD, the effect of various FB-21 peptide fragments described herein on the deformation of synapse induced by toxic A3 oligomer and following structural recovery was assessed. Specifically, the following FB-21 peptide fragments were tested: FB-21, FB-JM-31 and FB-BBB-39 (see Example 10).
Aβ42 (#20276) peptide was purchased from AnaSpec (Fremont, USA). […]
Hippocampal neurons were treated with 6.6 nM FB-21, 6.6 nM of FB-13-JM and 6.6 nM of FB-13-BBBX2 at 14, 17 and 20 DIV to determine the level of synaptogenesis at 21 DIV by immunostaining SYP, a presynapse marker protein and PSD95, a postsynapse marker protein. To quantify fluorescence intensity for SYN and PSD95 and number of colocalized voxels between SYN and PSD95 signals, z-stack confocal images of 3 m in depth were converted to 3D images using IMARIS software (IMARIS9.0, Bitplane AG, Zurich, Switzerland). The “Surface tool” of the IMARIS software was used to exclude all the signals detected in neuronal cell bodies, and number of colocalized voxels between SYN and PSD95 signals in neurites were calculated using the “Coloc tool”. […]

[2] = target: complex of human LRRC4B protein (hFc-fused) and recombinant FAM19A5 protein (Homo sapiens, UniProt Q7Z5A7); assay: Competitive inhibition assay (IC50), plate coated with LRRC4B(453-576, TT/TT)-hFc; assay type: binding; settings: hFc-fused hLRRC4B; from IC50 of Table 14
complex of human LRRC4B protein (hFc-fused) and recombinant FAM19A5 protein, sequence (Q7Z5A7 44-132, one chain of several): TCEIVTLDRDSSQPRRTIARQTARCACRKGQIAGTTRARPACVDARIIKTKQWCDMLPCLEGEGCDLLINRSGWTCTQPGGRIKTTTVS
Protocol: The in silico analysis provided in Example 9 highlighted that certain T12 and L13 double mutants might be important in improving the binding affinity of the polypeptides of the present disclosure to the FAM19A5 protein. Therefore, the ability of both the wild-type FB-21 peptide (which is the same as the FB-20 peptide described herein except that the FB-21 peptide additionally contains an alanine at the C-terminus) and several FB-21 mutants were tested for their inhibitor effect on hFc-fused hLRRC4B and FAM19A5 complex formation. Briefly, plate was coated with 100 nM of LRRC4B(453-576, TT/TT)-hFc and then 1 ng/mL of rFAM19A5 was incubated at 37° C. in the presence of increasing concentrations of the different FB-21 peptide fragments (0.03, 0.1, 0.3, 1, 3, 10, 30, 100, 300 and 1000 nM). The LRRC4B-bound FAM19A5 levels were measured using HRP-conjugated 1-65 antibody.

[3] = target: complex of His-TEV LRRC4B and recombinant FAM19A5 protein (Homo sapiens, UniProt Q7Z5A7); assay: Competitive inhibition assay (IC50), plate coated with His-TEV LRRC4B; assay type: binding; settings: FIG. 22C; d-form peptides; methods as for Table 15
complex of His-TEV LRRC4B and recombinant FAM19A5 protein, sequence (Q7Z5A7 44-132, one chain of several): as above
Protocol: To further assess the inhibitory effect of the FB-21 mutants, the ability of additional FB-21 mutants described in Example 9 were tested for their ability to inhibit the interaction between FAM19A5 protein and LRRC4B protein. Briefly, plates were coated with 100 nM of His-TEV LRRC4B and then 1 ng/mL of rFAM19A5 was incubated at 37° C. in the presence of increasing concentrations of the FB-21 peptide fragments (0.3, 1, 3, 10, 30, 100, 300, 1000, 3000 and 10000 nM). The LRRC4B-bound FAM19A5 levels were measured using HRP-conjugated 1-65 SS01 antibody. As shown in FIG. 22B (see Table 15 for IC50), most (if not all) of the FB-21 mutants had improved ability in inhibiting the interaction between LRRC4B and recombinant FAM19A5 protein.
Next, to assess whether other properties of the polypeptides described herein can be improved (e.g., solubility, prevention of degradation from protease and peptidase, and in vivo administration), the following additional FB-21 peptide mutants were constructed and tested for their ability to inhibit the interaction between FAM19A5 protein and LRRC4B: (1) d-form FB-21 peptide (“dFB-21”), (2) d-form FB-21 peptide with juxta-membrane (JM) sequence (“dFB-JM-31”), (3) d-form FB-21 peptide with BBB penetrating sequence at each end of the sequence (“dFB-BBB-39”), and (4) d-form FB-21 mutant peptide with DY replacement and additional JM sequence (“dFB-DY-JM31”). […]

## nYTYFTTVTVETLETQPGEEALDEVMKTTKa ([dN]YTYFTTVTVETLETQPGEEALDEVMKTTK[dA]; also: terminal modifications) [dFB-JM-31]
[1]
  colocalized voxels for PSD95 and synaptophysin: significant increase

## CC(C)[C@H](NC(=O)[C@@H](NC(=O)[C@@H](NC(=O)[C@@H](NC(=O)[C@@H](NC(=O)[C@H](Cc1ccccc1)NC(=O)[C@H](Cc1ccc(O)cc1)NC(=O)[C@@H](NC(=O)[C@H](Cc1ccc(O)cc1)NC(=O)CN)[C@@H](C)O)[C@@H](C)O)[C@@H](C)O)C(C)C)[C@@H](C)O)C(=O)N[C@@H](CCC(=O)O)C(=O)N[C@@H](Cc1c[nH]c2ccccc12)C(=O)N[C@@H](Cc1ccc(O)cc1)C(=O)N[C@@H](CCC(=O)O)C(=O)N[C@H](C(=O)N[C@@H](CCC(N)=O)C(=O)N1CCC[C@H]1C(=O)NCC(=O)N[C@@H](CCC(=O)O)C(=O)N[C@@H](CCC(=O)O)C(=O)N[C@@H](C)C(=O)O)[C@@H](C)O [FB-21 (W12Y13)] (H-GYTYFTTVTVEWYETQPGEEA-OH; N-terminus and C-terminus assumed)
[2]
  increase in ability to dissociate the LRRC4B-FAM19A5 complex compared with wild-type FB-21: 2.9 fold

## nYTYFTTVTVEDYETQPGEEALDEVMKTTKa ([dN]YTYFTTVTVEDYETQPGEEALDEVMKTTK[dA]; also: terminal modifications) [dFB-DY-JM31]
[3]
  more effective in inhibiting complex formation compared to the wild-type FB-21: 4 fold
